From paper PMC10957897, “An evolutionary mechanism to assimilate new nutrient sensors into the mTORC1 pathway” (Nature Communications, 2024)
Residue numbers refer to the chain shown, from its start.

Assays:
[1] = target: T1, Unmet expectations (Unmet; CG11596) (Drosophila melanogaster, UniProt Q9I7X6); assay: competition with [3H]SAM binding to purified protein on anti-FLAG beads; settings: 5 μM [3H]SAM, pH 7.4, on ice
T1 construct: FLAG-tagged, tag kept; pRK5 vector, expressed in suspension HEK-293T cells
T1 sequence (Q9I7X6 1-456): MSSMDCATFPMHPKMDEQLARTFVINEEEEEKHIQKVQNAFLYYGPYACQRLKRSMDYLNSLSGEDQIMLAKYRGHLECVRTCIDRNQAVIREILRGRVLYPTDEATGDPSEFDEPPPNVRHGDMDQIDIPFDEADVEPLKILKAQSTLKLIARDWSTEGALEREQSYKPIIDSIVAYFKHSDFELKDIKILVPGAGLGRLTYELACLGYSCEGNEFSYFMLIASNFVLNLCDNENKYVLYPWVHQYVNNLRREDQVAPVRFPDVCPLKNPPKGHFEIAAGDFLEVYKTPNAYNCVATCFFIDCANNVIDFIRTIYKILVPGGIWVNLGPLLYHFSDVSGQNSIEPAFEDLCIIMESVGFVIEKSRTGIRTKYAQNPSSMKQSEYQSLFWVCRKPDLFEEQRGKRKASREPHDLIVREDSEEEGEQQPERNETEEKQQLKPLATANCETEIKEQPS

[2] = target: T2, Unmet expectations (Unmet; CG11596) (Drosophila melanogaster, UniProt Q9I7X6, E30A); assay: [3H]SAM binding to purified protein on anti-FLAG beads; settings: 5 μM [3H]SAM with or without unlabeled SAM, pH 7.4, on ice; labelled compound
T2 construct: FLAG-tagged, tag kept; pRK5 vector, expressed in suspension HEK-293T cells
T2 sequence (Q9I7X6 1-456 E30A): T1 sequence (Q9I7X6 1-456) with E30A

| SMILES | competition with [3H]SAM binding to purified protein on anti-FLAG beads [1] | SAM-binding capacity [2] |
| --- | --- | --- |
| Nc1ncnc2c1ncn2[C@@H]1O[C@H](C[C@@H](N)CC[C@H](N)C(=O)O)[C@@H](O)[C@H]1O [sinefungin] | also competes with labeled SAM for binding to Unmet |  |
| Nc1ncnc2c1ncn2[C@@H]1O[C@H](CSCC[C@H](N)C(=O)O)[C@@H](O)[C@H]1O [SAH] | it readily competes with labeled SAM for binding to Unmet |  |
| C[S+](CC[C@H](N)C(=O)O)C[C@H]1O[C@@H](n2cnc3c(N)ncnc32)[C@H](O)[C@@H]1O (stereo partly drawn) [SAM] |  | The E30A mutant of Unmet does not interact with dGATOR2 but maintains its SAM-binding capacity |
